# Test results taken from patent US7507727B2, “Substituted quinobenzoxazine analogs and methods of using thereof” (Cylene Pharmaceuticals, Inc., priority 2003, dated 2009).
# pIC50: −log10 of the molar value.
# Molecular target: c-Myc template DNA (c-myc quadruplex)
# Experiment: Quadruplex binding / stop assay (Taq polymerase arrest, capillary electrophoresis)
# Settings: read-out: S DATA; Table 1D, stop assay data
row,pIC50,Structure (SMILES)
1,5.52,CCN(CC)CCCC(C)NC(=O)c1cn2c3c(c(N4CCC(c5cnccn5)C4)c(F)cc3c1=O)Oc1ccccc1-2 (stereo not shown) [compound 1725]
2,< 4.82,CC(C)(C)OC(=O)NC1CCN(c2ccc3c(=O)c(C(=O)NCCN4CCCC4)cn4c3c2Oc2cc3ccccc3cc2-4)C1 (stereo not shown) [compound 1534]
3,6.12,CN1CCCC1CCNC(=O)c1cn2c3c(c(N4CCC(c5ccccn5)C4)c(F)cc3c1=O)Oc1cc3ccccc3cc1-2 (stereo not shown) [compound 1507]
4,< 4.82,CC(C)(C)OC(=O)NC1CCN(c2c(F)cc3c(=O)c(C(=O)NCCCCN)cn4c3c2Oc2ccccc2-4)C1 (stereo not shown) [compound 1589]
5,< 4.82,CN(C)c1ccccc1CNC(=O)c1cn2c3c(c(N4CCC(N)C4)c(F)cc3c1=O)Oc1cc3ccccc3cc1-2 (stereo not shown) [compound 1715]
6,6.00,CN(C)CCCCNc1ccc2c(=O)c(C(=O)NCCN3CCCC3)cn3c2c1Oc1cc2ccccc2cc1-3 [compound 1540]
7,< 4.82,CN(C)CCCCNC(=O)c1cn2c3c(c(NCCN4CCOCC4)ccc3c1=O)Oc1cc3ccccc3cc1-2 [compound 1550]
8,5.76,CN1CCCC1CCNC(=O)c1cn2c3c(c(NCCCCCO)c(F)cc3c1=O)Oc1cc3ccccc3cc1-2 (stereo not shown) [compound 1658]
9,< 4.82,Cc1cc(CNc2c(F)cc3c(=O)c(C(=O)NCCC4CCCN4C)cn4c3c2Oc2cc3ccccc3cc2-4)no1 (stereo not shown) [compound 1753]

# Continued, compound first:
row,Structure (SMILES),pIC50
1,O=C(NCCN1CCOCC1)c1cn2c3c(c(NCCN4CCOCC4)c(F)cc3c1=O)Oc1ccccc1-2 [compound 1605],< 4.82
2,CN1CCCC1CCNC(=O)c1cn2c3c(c(N4CCC(c5cnccn5)C4)c(F)cc3c1=O)Oc1ccc(C#N)cc1-2 (stereo not shown) [compound 1777],5.17
3,CC(C)N1CCN(c2c(F)cc3c(=O)c(C(=O)NCCN4CCOCC4)cn4c3c2Oc2cc(Cl)ccc2-4)CC1 [compound 1805],< 4.82
4,O=C(NCCN1CCOCC1)c1cn2c3c(c(N4CCC(c5cnccn5)C4)c(F)cc3c1=O)Oc1cc(Cl)ccc1-2 (stereo not shown) [compound 1790],< 4.82
5,CN1CCCC1CCNC(=O)c1cn2c3c(c(NCCN4CCCC4)c(F)cc3c1=O)Oc1ccccc1-2 (stereo not shown) [compound 1596],< 4.82
6,CC(C)N1CCN(c2c(F)cc3c(=O)c(C(=O)NCCCN4CCOCC4)cn4c3c2Oc2ccc(Cl)cc2-4)CC1 [compound 1791],< 4.82
7,CC1(C)CC(NC(=O)c2cn3c4c(c(N5CCC(NC(=O)OC(C)(C)C)C5)c(F)cc4c2=O)Oc2ccccc2-3)CC(C)(C)N1 (stereo not shown) [compound 1591],< 4.82
8,O=C(NCCN1CCOCC1)c1cn2c3c(c(NCCN4CCCC4)ccc3c1=O)Oc1cc3ccccc3cc1-2 [compound 1521],5.76
9,O=C(NCCN1CCOCC1)c1cn2c3c(c(NCCCN4CCOCC4)ccc3c1=O)Oc1cc3ccccc3cc1-2 [compound 1533],< 4.82
10,CN1CCCC1CCNC(=O)c1cn2c3c(c(N4CCC(c5cnccn5)C4)c(F)cc3c1=O)Oc1ccc(Cl)cc1-2 (stereo not shown) [compound 1764],5.32
11,CC(=O)N1CCN(c2c(F)cc3c(=O)c(C(=O)NCCN4CCCC4)cn4c3c2Oc2cc(Cl)ccc2-4)CC1 [compound 1812],5.49
12,O=C(NCCN1CCCC1)c1cn2c3c(c(N4CCN(Cc5ccoc5)CC4)c(F)cc3c1=O)Oc1cc(Cl)ccc1-2 [compound 1832],5.00
13,CN1CCCC1CCNC(=O)c1cn2c3c(c(NC4CC(C)(C)N(O)C(C)(C)C4)c(F)cc3c1=O)Oc1cc3ccccc3cc1-2 (stereo not shown) [compound 1484],5.76

# Same assay, conditions: read-out: Stop Data c-Myc μM; concentration at which 50% of the DNA was arrested (arrested:full-length 1:1)
row,IC50 [µM],Structure (SMILES)
1,1,N=C(N)NCCCCNC(=O)c1cn2c3c(c(N4CC5CCCNC5C4)c(F)cc3c1=O)Oc1cc3ccccc3cc1-2 (stereo not shown) [compound 328]
2,1.75,Cc1ncn(C(=O)c2cn3c4c(c(N5CCC(NC(=O)OC(C)(C)C)C5)c(F)cc4c2=O)Oc2cc4ccccc4cc2-3)c1CO (stereo not shown) [compound 187]
3,1,CC(C)(C)OC(=O)N[C@@H]1CCN(c2c(F)cc3c(=O)c(C(=O)NCCCCN=C(N)N)cn4c3c2Oc2cc3ccccc3cc2-4)C1 [compound 322]
4,0.74,CN1CCC[C@@H]1CCNC(=O)c1cn2c3c(c(N4CCC(c5cnccn5)C4)c(F)cc3c1=O)Oc1cc3ccccc3cc1-2 (stereo partly shown) [compound 468]
5,0.75,CN(C)CCCCNC(=O)c1cn2c3c(c(NCCCN4CCN(C)CC4)ccc3c1=O)Oc1cc3ccccc3cc1-2 [compound 456]
6,1.75,CN1CCCC1CCNC(=O)c1cn2c3c(c(NCCC4CCCN4C)c(F)cc3c1=O)Oc1cc3ccccc3cc1-2 (stereo not shown) [compound 124]
7,1.75,NC1CCN(c2ccc3c(=O)c(C(=O)O)cn4c3c2Oc2cc3ccccc3cc2-4)C1 (stereo not shown) [compound 280]
8,0.75,CN1CCCC1CCNC(=O)c1cn2c3c(c(NCC4CCN(C(=O)OC(C)(C)C)C4)c(F)cc3c1=O)Oc1cc3ccccc3cc1-2 (stereo not shown) [compound 441]
9,2.5,O=C(c1cn2c3c(c(NCC4CCNCC4)c(F)cc3c1=O)Oc1cc3ccccc3cc1-2)N1CCOCC1 [compound 44]
10,1,N=C(N)NCCCNC(=O)c1cn2c3c(c(N4CC5CCCNC5C4)c(F)cc3c1=O)Oc1cc3ccccc3cc1-2 (stereo not shown) [compound 327]
11,1.75,CN1CCC(N(C)C(=O)c2cn3c4c(c(N5CCC(N)C5)c(F)cc4c2=O)Oc2cc4ccccc4cc2-3)CC1 (stereo not shown) [compound 198]
12,0.75,CN1CCCC1CCNC(=O)c1cn2c3c(c(N4CCC(c5ccccn5)C4)c(F)cc3c1=O)Oc1cc3ccccc3cc1-2 (stereo not shown) [compound 442]
13,1.75,NC1CCN(c2c(F)cc3c(=O)c(C(=O)NCCCn4ccnc4)cn4c3c2Oc2cc3ccccc3cc2-4)C1 (stereo not shown) [compound 200]
14,0.75,CC1CCCCN1CCCNc1c(F)cc2c(=O)c(C(=O)N3CCOCC3)cn3c2c1Oc1cc2ccccc2cc1-3 (stereo not shown) [compound 393]
15,2.5,CN(C)CCCCNC(=O)c1cn2c3c(c(NCCN4CCOCC4)c(F)cc3c1=O)Oc1cc3ccccc3cc1-2 [compound 59]
16,1.75,CN1CCCC1CCNC(=O)c1cn2c3c(c(NCC4CCNCC4)c(F)cc3c1=O)Oc1cc3ccccc3cc1-2 (stereo not shown) [compound 252]
17,1.75,Nc1c(F)c(N2CCC(N)C2)c2c3c1c(=O)c(C(=O)N1CCC(N)C1)cn3-c1cc3ccccc3cc1O2 (stereo not shown) [compound 236]
18,2.5,CC(C)(C)OC(=O)N[C@@H]1CCN(C(=O)c2cn3c4c(c(NCCN5CCOCC5)c(F)cc4c2=O)Oc2cc4ccccc4cc2-3)C1 [compound 56]
19,1.75,CN1CCCC1CCNC(=O)c1cn2c3c(c(NCCCO)c(F)cc3c1=O)Oc1cc3ccccc3cc1-2 (stereo not shown) [compound 293]
20,1.75,CCN(CC)CCCC(C)NC(=O)c1cn2c3c(c(N4CCC(NC(=O)OC(C)(C)C)C4)c(F)cc3c1=O)Oc1cc3ccccc3cc1-2 (stereo not shown) [compound 241]
21,2.5,CN(C)CCCCNC(=O)c1cn2c3c(c(N4CC[C@@H](NC(=O)OC(C)(C)C)C4)c(F)cc3c1=O)Oc1cc3ccccc3cc1-2 [compound 66]
22,0.75,CN1CCCC1CCNC(=O)c1cn2c3c(c(N4CCC(c5cccnc5)C4)c(F)cc3c1=O)Oc1cc3ccccc3cc1-2 (stereo not shown) [compound 443]
23,1.75,CN(C)CCN(Cc1ccccc1)C(=O)c1cn2c3c(c(N4CCC(N)C4)c(F)cc3c1=O)Oc1cc3ccccc3cc1-2 (stereo not shown) [compound 194]
24,1.75,CN(C)CCCCNC(=O)c1cn2c3c(c(NCCCCN(C)C)ccc3c1=O)Oc1cc3ccccc3cc1-2 [compound 277]
25,0.64,N=C(N)NCCNC(=O)c1cn2c3c(c(N4CC5CCCNC5C4)c(F)cc3c1=O)Oc1cc3ccccc3cc1-2 (stereo not shown) [compound 471]
26,0.34,N=C(N)NCCNC(=O)c1cn2c3c(c(NCCN4CCCC4)c(F)cc3c1=O)Oc1cc3ccccc3cc1-2 [compound 561]

# More lines, now with the values behind:
row,Structure (SMILES),IC50 [µM]
1,CN1CCCC1CCNC(=O)c1cn2c3c(c(NCCCN4CCOCC4)ccc3c1=O)Oc1cc3ccccc3cc1-2 (stereo not shown) [compound 273],1.75
2,CN1CCN(CCCNc2ccc3c(=O)c(C(=O)NCCC4CCCN4C)cn4c3c2Oc2cc3ccccc3cc2-4)CC1 (stereo not shown) [compound 455],0.75
3,O=C(O)c1cn2c3cc4oc5cc([N+](=O)[O-])ccc5[nH]c4cc3oc3c(NCCCN4CCOCC4)c(F)cc(c1=O)c32 [compound 18],0.75
4,CN1CCCC1CCNc1c(F)cc2c(=O)c(C(=O)NCCN3CCCC3)cn3c2c1Oc1cc2c(cc1-3)oc1ccccc12 (stereo not shown) [compound 87],2.5
5,O=C(NCCCN1CCOCC1)c1cn2c3cc4c(=O)c5ccccc5c(=O)c4cc3oc3c(NCCCN4CCOCC4)c(F)cc(c1=O)c32 [compound 166],1.75
6,CN1CCCC1CCNc1c(F)cc2c(=O)c(C(=O)N3CCC(N)C3)cn3c4cc5c(=O)c6ccccc6c(=O)c5cc4oc1c23 (stereo not shown) [compound 93],2.5
7,N[C@H]1CCN(C(=O)c2cn3c4cc5c(cc4oc4c(NCCN6CCCC6)c(F)cc(c2=O)c43)c(=O)c2ccccc25)C1 [compound 214],1.75
8,CN(C)CCCCNc1c(F)cc2c(=O)c(C(=O)N3CCC(N)C3)cn3c4cc5c(=O)c6ccccc6c(=O)c5cc4oc1c23 (stereo not shown) [compound 96],2.5
9,O=C(NCCCn1ccnc1)c1cn2c3c(c(NCCN4CCCC4)c(F)cc3c1=O)Oc1c-2ccc2ccccc12 [compound 140],1.75
10,CN1CCCC1CCNc1ccc2c(=O)c(C(=O)NCCN3CCOCC3)cn3c2c1Oc1cc2ccccc2cc1-3 (stereo not shown) [compound 271],1.75
11,CN1CCCC1CCNCC(=O)N[C@@H]1CCN(c2c(F)cc3c(=O)c(C(=O)NCCN4CCCCC4)cn4c3c2Oc2cc3c(cc2-4)oc2ccccc23)C1 (stereo partly shown) [compound 409],0.75
12,O=C(NCCN1CCOCC1)c1cn2c3cc4c(cc3oc3c(NCCCN5CCOCC5)c(F)cc(c1=O)c32)c(=O)c1ccccc14 [compound 425],0.75
13,O=C(Nc1nnc(C(F)(F)F)s1)c1cn2c3c(c(NCCN4CCCC4)c(F)cc3c1=O)Oc1ccccc1-2 [compound 46],2.5
14,CN(C)CCCCNC(=O)c1cn2c3cc4oc5cc([N+](=O)[O-])ccc5[nH]c4cc3oc3c(NCCC4CCCN4C)c(F)cc(c1=O)c32 (stereo not shown) [compound 585],0.18
15,CN1CCN(CCCNC(=O)c2cn3c4cc5c(=O)c6ccccc6c(=O)c5cc4oc4c(N5CCN(C)CC5)c(F)cc(c2=O)c43)CC1 [compound 352],0.9
16,CN1CCCC1CCNCC(=O)N[C@@H]1CCN(c2c(F)cc3c(=O)c(C(=O)NCCC4CCCN4C)cn4c3c2Oc2cc3c(cc2-4)oc2ccccc23)C1 (stereo partly shown) [compound 410],0.75
